# Results published in ChEMBL document CHEMBL1201862, “PubChem BioAssay data set” (2004).
#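 Step 1: Grow cells in 96-well plates. Step 2: Expose to compound for 48 hours at 5 concentrations. Step 3: Interpolate endpoints linearly; if unreached, use highest concentration. Abbreviation: GI50, concentration required for 50% inhibition of growth.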 The source made the active and inactive calls. Cut-off read from the data, not from the text of the source: active = GI50 up to about 1.1 µM and inactive = higher.
# Columns and labels:
# Test in all cases: growth of human tumour cells (NCI), 48 h
# [1] = tested on: IGROV-1
# [2] = tested on: SF-295
# [3] = tested on: RPMI-8226
# [4] = tested on: A498
# [5] = tested on: KM12
# [6] = tested on: Malme-3M
# [7] = tested on: MDA-MB-231
# [8] = tested on: SN12C
# [9] = tested on: Hs-578T
# [10] = tested on: 786-0
# [11] = tested on: SK-MEL-5
# [12] = tested on: OVCAR-8
# [13] = tested on: OVCAR-5
# [14] = tested on: MCF7
# [15] = tested on: SK-MEL-28
# [16] = tested on: SNB-75
# [17] = tested on: SK-MEL-2
# [18] = tested on: M14
# [19] = tested on: SNB-19
# [20] = tested on: T47D
# [21] = tested on: OVCAR-4
# [22] = tested on: UACC-62
# [23] = tested on: BT-549
# [24] = tested on: U-251
# [25] = tested on: PC-3
# [26] = tested on: A549
# [27] = tested on: HCT-116
# [28] = tested on: NCI/ADR-RES
# [29] = tested on: HL-60
# [30] = tested on: RXF 393
# [31] = tested on: DU-145
# [32] = tested on: HOP-92
# [33] = tested on: OVCAR-3
# [34] = tested on: K562
# [35] = tested on: UACC-257
# [36] = tested on: HCT-15
# [37] = tested on: NCI-H23
# [38] = tested on: HT-29
# [39] = tested on: EKVX
# [40] = tested on: MDA-MB-435
# [41] = tested on: COLO 205
# [42] = tested on: LOX IMVI
# [43] = tested on: NCI-H226
# [44] = tested on: MOLT-4
# [45] = tested on: ACHN
# [46] = tested on: UO-31
# [47] = tested on: NCI-H522
# [48] = tested on: NCI-H460
# [49] = tested on: SR
# [50] = tested on: HCC 2998
# [51] = tested on: CCRF-CEM
# [52] = tested on: SF-268
# [53] = tested on: SF-539
# [54] = tested on: TK-10
# [55] = tested on: CAKI-1
# [56] = tested on: HOP-62
compound,measurement,setting,value
CC(=O)NNC1=NN(C(C)=O)C2(S1)C(=O)Nc1ccc(Br)cc12 (stereo unspecified),GI50,[1],35.9 µM (inactive)
same,GI50,[2],> 100 µM (inactive)
same,GI50,[3],> 100 µM (inactive)
same,GI50,[4],> 100 µM (inactive)
same,GI50,[5],> 100 µM (inactive)
same,GI50,[6],> 100 µM (inactive)
same,GI50,[7],> 100 µM (inactive)
same,GI50,[8],> 100 µM (inactive)
same,GI50,[9],> 100 µM (inactive)
same,GI50,[10],> 100 µM (inactive)
same,GI50,[11],> 100 µM (inactive)
same,GI50,[12],> 100 µM (inactive)
same,GI50,[13],> 100 µM (inactive)
same,GI50,[14],> 100 µM (inactive)
same,GI50,[15],> 100 µM (inactive)
same,GI50,[16],> 100 µM (inactive)
same,GI50,[17],> 100 µM (inactive)
same,GI50,[18],> 100 µM (inactive)
same,GI50,[19],> 100 µM (inactive)
same,GI50,[20],22 µM (inactive)
same,GI50,[21],78.3 µM (inactive)
same,GI50,[22],79.1 µM (inactive)
same,GI50,[23],59.6 µM (inactive)
same,GI50,[24],> 100 µM (inactive)
same,GI50,[25],> 100 µM (inactive)
same,GI50,[26],> 100 µM (inactive)
same,GI50,[27],> 100 µM (inactive)
same,GI50,[28],> 100 µM (inactive)
same,GI50,[29],> 100 µM (inactive)
same,GI50,[30],> 100 µM (inactive)
same,GI50,[31],> 100 µM (inactive)
same,GI50,[32],65.5 µM (inactive)
same,GI50,[33],> 100 µM (inactive)
same,GI50,[34],> 100 µM (inactive)
same,GI50,[35],> 100 µM (inactive)
same,GI50,[36],> 100 µM
same,GI50,[37],> 100 µM (inactive)
same,GI50,[38],> 100 µM (inactive)
same,GI50,[39],> 100 µM (inactive)
same,GI50,[40],> 100 µM (inactive)
same,GI50,[41],> 10 µM (inactive)
same,GI50,[42],> 100 µM (inactive)
same,GI50,[43],> 100 µM (inactive)
same,GI50,[44],> 100 µM (inactive)
same,GI50,[45],> 100 µM (inactive)
same,GI50,[46],39.4 µM (inactive)
same,GI50,[47],> 100 µM (inactive)
same,GI50,[48],93.3 µM (inactive)
same,GI50,[49],> 100 µM (inactive)
same,GI50,[50],> 100 µM (inactive)
same,GI50,[51],> 100 µM (inactive)
same,GI50,[52],> 100 µM (inactive)
same,GI50,[53],> 100 µM (inactive)
same,GI50,[54],> 100 µM (inactive)
same,GI50,[55],> 100 µM (inactive)
same,GI50,[56],> 100 µM (inactive)
